The source made the active and inactive calls. The calls are words filed in the database; no cut-off is given here.
Assays:
[1] = target: T1, Bromodomain-containing protein 4 (Homo sapiens, UniProt O60885); test: Inhibition of BRD4 in human A549 cells assessed as reduction in c-Myc level at 2 to 8 uM incubated for 48 hrs by Western blotting analysis; type: cell-based; conditions: dose 2-8 µM
[2] = target: T1, Bromodomain-containing protein 4; test: Inhibition of BRD4 BD1 (unknown origin) incubated for 15 mins by TR-FRET method
[3] = target: T1, Bromodomain-containing protein 4; test: Inhibition of BRD4 in human HCT-116 cells assessed as reduction in c-Myc level at 2 to 8 uM incubated for 48 hrs by Western blotting analysis; type: cell-based; conditions: dose 2-8 µM
MDA-MB-231 [4] = test: Inhibition of PRC2 in human MDA-MB-231 cells assessed as reduction in H3K27me3 level at 2 to 8 uM incubated for 48 hrs by Western blotting analysis; type: cell-based; conditions: dose 2-8 µM
[5] = target: T1, Bromodomain-containing protein 4; test: Inhibition of BRD4 in human MDA-MB-231 cells assessed as increase in p21 level at 2 to 8 uM incubated for 48 hrs by Western blotting analysis; type: cell-based; conditions: dose 2-8 µM
A549 [6] = test: Inhibition of PRC2 in human A549 cells assessed as reduction in H3K27me3 level at 2 to 8 uM incubated for 48 hrs by Western blotting analysis; type: cell-based; conditions: dose 2-8 µM
A549 [7] = test: Antiproliferative activity against human A549 cells incubated for 72 hrs by MTT assay; type: functional, cell-based; conditions: A549, 72 h
Cell membrane = test: Induction of mitochondrial membrane potential loss in human HCT-116 cells assessed as decrease in red fluorescence incubated for 48 hrs by flow cytometry analysis; conditions: Mitochondria, dose 2-8 µM
[8] = target: T1, Bromodomain-containing protein 4; test: Inhibition of BRD4 in human MDA-MB-231 cells assessed as reduction in c-Myc level at 2 to 8 uM incubated for 48 hrs by Western blotting analysis; type: cell-based; conditions: dose 2-8 µM
A549 [9] = test: Induction of apoptosis in human A549 cells assessed as reduction in Bcl-2 protein expression at 2 to 8 uM incubated for 48 hrs by Western blotting analysis; type: functional, cell-based; conditions: dose 2-8 µM
A549 [10] = test: Induction of apoptosis in human A549 cells assessed as […] in Bax protein expression at 2 to 8 uM incubated for 48 hrs by Western blotting analysis; type: functional, cell-based; conditions: dose 2-8 µM
[11] = target: T2, Histone-lysine N-methyltransferase EZH2 (Homo sapiens, UniProt Q15910); test: Inhibition of EZH2 in human MDA-MB-231 cells assessed as decrease in H3K27ac level at 12 uM incubated for 48 hrs by Western blotting analysis; type: cell-based
Target sequence in this assay (Q15910 whole entry, looked up): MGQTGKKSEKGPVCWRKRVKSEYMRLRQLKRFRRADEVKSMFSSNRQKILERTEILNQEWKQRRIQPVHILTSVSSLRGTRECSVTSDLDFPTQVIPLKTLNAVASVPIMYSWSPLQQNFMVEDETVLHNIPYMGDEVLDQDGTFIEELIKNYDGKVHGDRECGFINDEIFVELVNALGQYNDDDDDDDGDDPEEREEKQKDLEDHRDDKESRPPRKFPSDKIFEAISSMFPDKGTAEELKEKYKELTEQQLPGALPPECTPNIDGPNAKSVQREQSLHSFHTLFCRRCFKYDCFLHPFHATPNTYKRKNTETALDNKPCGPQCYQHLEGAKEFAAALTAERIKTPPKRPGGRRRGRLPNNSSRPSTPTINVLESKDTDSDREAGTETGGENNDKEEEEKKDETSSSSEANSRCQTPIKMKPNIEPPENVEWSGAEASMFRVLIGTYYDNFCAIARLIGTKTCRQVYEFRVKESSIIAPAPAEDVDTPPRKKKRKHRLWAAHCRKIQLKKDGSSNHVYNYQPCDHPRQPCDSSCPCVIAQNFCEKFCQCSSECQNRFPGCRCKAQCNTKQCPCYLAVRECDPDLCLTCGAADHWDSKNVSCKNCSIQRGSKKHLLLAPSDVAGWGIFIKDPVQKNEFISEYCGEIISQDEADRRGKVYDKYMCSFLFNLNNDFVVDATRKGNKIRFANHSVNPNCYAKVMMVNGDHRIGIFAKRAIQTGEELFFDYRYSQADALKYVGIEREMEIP

HCT-116 [12] = test: Antiproliferative activity against human HCT-116 cells assessed as reduction in number of colonies incubated for 48 hrs with replacement of normal media every day for 14 days; type: functional, cell-based; conditions: dose 2-8 µM
[13] = target: T2, Histone-lysine N-methyltransferase EZH2; test: Inhibition of EZH2 in human HCT-116 cells assessed as decrease in H3K27ac level at 2 to 8 uM incubated for 48 hrs by Western blotting analysis; type: cell-based; conditions: dose 2-8 µM
Target sequence in this assay (Q15910 whole entry, looked up): as above

HCT-116 [14] = test: Induction of apoptosis in human HCT-116 cells at 2 to 8 uM incubated for 48 hrs by Annexin V-PE/7-AAD staining based flow cytometry analysis; type: functional, cell-based; conditions: dose 2-8 µM
[15] = Binding affinity to recombinant PRC2 complex (unknown origin) incubated for 3 hrs in presence of SAM; design: species or system Homo sapiens
[16] = target: T1, Bromodomain-containing protein 4; test: Inhibition of BRD4 in human HCT-116 cells assessed as increase in p21 level at 2 to 8 uM incubated for 48 hrs by Western blotting analysis; type: cell-based; conditions: dose 2-8 µM
[17] = target: T2, Histone-lysine N-methyltransferase EZH2; test: Inhibition of EZH2 (unknown origin)
Target sequence in this assay (Q15910 whole entry): as the sequence (Q15910 whole entry, looked up) above

[18] = target: T2, Histone-lysine N-methyltransferase EZH2; test: Inhibition of EZH2 in human HCT-116 cells assessed as decrease in H3K27ac level at 12 uM incubated for 48 hrs by Western blotting analysis; type: cell-based
Target sequence in this assay (Q15910 whole entry, looked up): as above

[19] = target: T2, Histone-lysine N-methyltransferase EZH2; test: Inhibition of EZH2 in human A549 cells assessed as decrease in H3K27ac level at 2 to 8 uM incubated for 48 hrs by Western blotting analysis; type: cell-based; conditions: dose 2-8 µM
Target sequence in this assay (Q15910 whole entry, looked up): as above

HCT-116 [20] = test: Inhibition of PRC2 in human HCT-116 cells assessed as reduction in H3K27me3 level at 2 to 8 uM incubated for 48 hrs by Western blotting analysis; type: cell-based; conditions: dose 2-8 µM
[21] = target: T1, Bromodomain-containing protein 4; test: Inhibition of BRD4 in human A549 cells assessed as increase in p21 level at 2 to 8 uM incubated for 48 hrs by Western blotting analysis; type: cell-based; conditions: dose 2-8 µM
HCT-116 [22] = test: Antiproliferative activity against human HCT-116 cells incubated for 72 hrs by MTT assay; type: functional, cell-based; conditions: HCT-116, 72 h
MDA-MB-231 [23] = test: Antiproliferative activity against human MDA-MB-231 cells incubated for 72 hrs by MTT assay; type: functional, cell-based; conditions: MDA-MB-231, 72 h
[24] = target: T2, Histone-lysine N-methyltransferase EZH2; test: Inhibition of EZH2 in human MDA-MB-231 cells assessed as decrease in H3K27ac level at 2 to 8 uM incubated for 48 hrs by Western blotting analysis; type: cell-based; conditions: dose 2-8 µM
Target sequence in this assay (Q15910 whole entry, looked up): as above

HCT-116 [25] = test: Induction of cell cycle arrest in human HCT-116 cells assessed as accumulation of cells at G0/G1 phase at 2 to 8 uM incubated for 48 hrs by RNAase-A and PI staining based flow cytometry analysis; type: functional; conditions: dose 2-8 µM
BT-549 = test: Antiproliferative activity against human BT-549 cells incubated for 72 hrs by MTT assay; type: functional, cell-based; conditions: BT-549, 72 h
[26] = target: T2, Histone-lysine N-methyltransferase EZH2; test: Inhibition of EZH2 in human A549 cells assessed as decrease in H3K27ac level at 18 uM incubated for 48 hrs by Western blotting analysis; type: cell-based
Target sequence in this assay (Q15910 whole entry, looked up): as above

SMILES: Cc1cc(C)c(CNC(=O)c2cc(NCCCCCNC(=O)C[C@@H]3N=C(c4ccc(Cl)cc4)c4c(sc(C)c4C)-n4c(C)nnc43)cc3c2cnn3C(C)C)c(=O)[nH]1
- inhibition [1]: Active
- IC50 [2]: 0.134 µM
- inhibition [3]: Active
- inhibition (MDA-MB-231 [4]): Active
- inhibition [5]: Active
- inhibition (A549 [6]): Active
- IC50 (A549 [7]): 4.63 µM
- Activity (Cell membrane): Dose-Dependent Effect
- inhibition [8]: Active
- Activity (A549 [9]): Active
- Activity (A549 [10]): Active
- inhibition [11]: inactive
- Activity (HCT-116 [12]): Dose-Dependent Effect
- inhibition [13]: Active
- Activity (HCT-116 [14]): Active
- Kd [15]: 0.18 µM
- inhibition [16]: Active
- IC50 [17]: 0.082 µM
- inhibition [18]: inactive
- inhibition [19]: Active
- inhibition (HCT-116 [20]): Active
- inhibition [21]: Active
- IC50 (HCT-116 [22]): 1.86 µM
- IC50 (MDA-MB-231 [23]): 2.31 µM
- inhibition [24]: Active
- Activity (HCT-116 [25]): Active
- IC50 (BT-549): 3.97 µM
- inhibition [26]: inactive
